From US8404643B2, “Metastin derivatives and use thereof” (priority 2005, dated 2013)
Square brackets hold non-standard residues; d marks the D form. Peptide text beside a SMILES is read from it. * marks the point of attachment. Arg(Me) = CNC(=N)NCCC[C@H](N)C(=O)O; Dap(CONH2) = NC(=O)NC[C@H](N)C(=O)O; d4Pal = N[C@H](Cc1ccncc1)C(=O)O; Decanoyl = CCCCCCCCCC(=O)*; Pip = O=C(O)[C@@H]1CCCCN1; Aze = O=C(O)[C@@H]1CCN1; NHBn = c1ccc(CN*)cc1; Ahx = NCCCCCC(=O)O; NHPentyl = CCCCCN*; azaGly = NNC(=O)O; NHcPr = C1CC1N*

target: T1, hOT7T175 (Homo sapiens, UniProt Q969F8); test: Assay for intracellular Ca ion level-increasing activity using FLIPR; type: cell-based; settings: hOT7T175/CHO cells, relative to Metastin (1-54)
T1 construct: expressed in transfected cells
Description: In accordance with the method described in JPA 2000-312590, the intracellular Ca ion level-increasing activity was measured using FLIPR.
The stable expression cell line hOT7T175 was obtained by transfection of the expression plasmid pAK-rOT175 for animal cells into CHO/dhfr^− cells, using CellPhect Transfection Kit (Amersham Pharmacia Biotech, Inc.). First, 240 μL of Buffer A (attached to CellPhect Transfection Kit) was added to 9.6 μg of plasmid DNA dissolved in 240 μL of distilled water followed by stirring. After the mixture was settled for 10 minutes, 480 μL of Buffer B (attached to CellPhect Transfection Kit) was added to the mixture, which was vigorously stirred to form liposomes containing the DNA. Then, 4×10^5 CHO/dhfr^− cells (obtained from ATCC) were inoculated on a 60 mm Petri dish. After culturing the cells in Ham's F-12 medium (Nissui Seiyaku Co., Ltd.) supplemented with 10% fetal bovine serum (BIO WHITTAKER, Inc.) at 37° C. for 2 days in 5% carbon dioxide gas, […] of the liposomes were dropwise added to the cells on the Petri dish. After culturing the cells at 37° C. for 6 hours in 5% carbon dioxide gas, the cells were washed twice with serum-free Ham's F-12 medium and 3 mL of 15% glycerol was added to the cells on the Petri dish followed by treatment for 2 minutes. The cells were again washed twice with serum-free Ham's F-12 medium followed by incubation in Ham's F-12 medium supplemented with 10% fetal bovine serum at 37° C. for 15 hours in 5% carbon dioxide gas. The cells were dispersed by trypsin treatment to recover from the Petri dish. The recovered cells were inoculated on a 6-well plate in 1.25×10^4 cells/well and incubation was initiated at 37° C. in Dulbecco's modified Eagle medium (DMEM) medium (Nissui Seiyaku Co., Ltd.) containing 10% dialyzed fetal bovine serum (JRH BIOSCIENCES, Inc.) in 5% carbon dioxide gas. The plasmid-transfected CHO transformants grew in the medium but the non-transfected cells gradually died, accordingly the medium was exchanged on Days 1 and 2 after the initiation of incubation to remove the cells died. Approximately 20 colonies of the CHO transformants that kept growing on Days 8 to 10 after the incubation were isolated. From the cells in these colonies, cells showing high reactivity with the ligand peptide metastin (hereinafter merely referred to as hOT7T175/CHO) were selected to provide for the following experiment.
The intracellular Ca ion level-increasing activity of the synthetic peptide in hOT7T175/CHO was determined using FLIPR (Molecular Devices, Inc.).
hOT7T175/CHO was subcultured in DMEM supplemented with 10% dialyzed fetal bovine serum (hereinafter abbreviated as dFBS) (hereinafter referred to as 10% dFBS/DMEM) and provided for the experiment. The hOT7T175/CHO was suspended in 10% dFBS-DMEM in 15×10^4 cells/ml. The suspension was inoculated on a 96-well plate for FLIPR (Black Plate Clear Bottom, Coster, Inc.) at 200 μl/well (3.0×10^4 cells/200 μL/well), followed by incubation at 37° C. overnight in a 5% CO2 incubator (hereinafter referred to as the cell plate). Then, 21 ml of HANKS/HBSS (9.8 g of HANKS, 0.35 g of sodium hydrogencarbonate, 20 ml of 1M HEPES; after adjusting the pH to 7.4 with 1N sodium hydroxide, the mixture was sterilized by filtration), 210 μl of 250 mM Probenecid and 210 μl of fetal bovine serum (FBS) (HANKS/HBSS-Probenecid-FBS) were mixed.
Furthermore, 2 vials of Fluo3-AM (50 μg/vial) were dissolved in 21 μL of dimethylsulfoxide and 21 μL of 20% Pluronic acid. The resulting solution was added to and mixed with 10 ml of the HANKS/HBSS-Probenecid-FBS described above. After the culture medium was removed, the mixture was dispensed onto the cell plate in 100 μl each/well, followed by incubation at 37° C. for an hour in a 5% CO2 incubator (pigment loading). The peptide was dissolved in dimethylsulfoxide in 1×10^−3 M. The peptide solution was diluted with HANKS/HBSS containing 2.5 mM Probenecid, 0.2% BSA and 0.1% CHAPS. […]

T1 sequence (Q969F8 whole entry L364H): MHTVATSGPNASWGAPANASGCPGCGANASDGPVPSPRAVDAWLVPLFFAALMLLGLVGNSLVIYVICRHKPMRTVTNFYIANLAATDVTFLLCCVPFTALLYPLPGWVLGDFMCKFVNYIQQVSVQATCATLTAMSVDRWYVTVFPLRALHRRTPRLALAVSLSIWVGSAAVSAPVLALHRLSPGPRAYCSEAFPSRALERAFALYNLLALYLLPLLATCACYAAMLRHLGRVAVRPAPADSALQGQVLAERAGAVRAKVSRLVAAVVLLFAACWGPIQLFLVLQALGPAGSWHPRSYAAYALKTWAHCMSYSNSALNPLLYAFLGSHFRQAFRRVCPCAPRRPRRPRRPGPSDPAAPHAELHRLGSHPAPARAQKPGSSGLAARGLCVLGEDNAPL

With `CNC(=N)NCCC[C@H](NC(=O)[C@H](CC(C)C)NC(=O)NNC(=O)[C@H](Cc1ccccc1)NC(=O)[C@@H](NC(=O)[C@H](CC(N)=O)NC(=O)C(CC1CCNCC1)NC(=O)[C@@H](Cc1ccc(O)cc1)NC(C)=O)[C@@H](C)O)C(=O)N[C@@H](Cc1c[nH]c2ccccc12)C(N)=O` (mixture of isomers) [Compound No. 774, Ac-D-Tyr-DL-Ala(Pip)-Asn-Thr-Phe-AzaGly-Leu-Arg(Me)-Trp-NH2] as the molecule, how does the “Specific Activity: intracellular Ca ion level-increasing activity [specific activity to Metastin (1-54)]” value read?
Its value is 2.0.

`CC(=O)N[C@H](Cc1ccc(O)cc1)C(=O)N[C@H](Cc1c[nH]c2ccccc12)C(=O)N[C@@H](CC(N)=O)C(=O)N[C@H](C(=O)N[C@@H](Cc1ccccc1)C(=O)NNC(=O)N[C@@H](CC(C)C)C(=O)N[C@H](CCCNC(=N)N)C(=O)N[C@@H](Cc1c[nH]c2ccccc12)C(N)=O)[C@@H](C)O` [Compound No. 708, Ac-D-Tyr-D-Trp-Asn-Thr-Phe-AzaGly-Leu-D-Arg-Trp-NH2] (Ac-[dY][dW]NTF[azaGly]L[dR]W-NH2) was tested. Which “Specific Activity: intracellular Ca ion level-increasing activity [specific activity to Metastin (1-54)]” value did it give?
Its value is 12.8.

For `CNC(=N)NCCC[C@H](NC(=O)[C@H](CC(C)C)NC(=O)NNC(=O)[C@H](Cc1ccccc1)NC(=O)[C@@H](NC(=O)[C@H](CC(N)=O)NC(C)=O)[C@@H](C)O)C(=O)N[C@@H](Cc1c[nH]c2ccccc12)C(N)=O` [Compound No. 709, Ac-Asn-Thr-Phe-AzaGly-Leu-Arg(Me)-Trp-NH2] (Ac-NTF[azaGly]L[Arg(Me)]W-NH2), which “Specific Activity: intracellular Ca ion level-increasing activity [specific activity to Metastin (1-54)]” value is on record?
Its value is 9.8.

With `CCCCCCCCCC(=O)N[C@@H](CC(N)=O)C(=O)N[C@H](C(=O)N[C@@H](Cc1ccccc1)C(=O)NNC(=O)N[C@@H](CC(C)C)C(=O)N[C@@H](CCCNC(=N)NC)C(=O)N[C@@H](Cc1c[nH]c2ccccc12)C(N)=O)[C@@H](C)O` [Compound No. 710, Decanoyl-Asn-Thr-Phe-AzaGly-Leu-Arg(Me)-Trp-NH2] (Decanoyl-NTF[azaGly]L[Arg(Me)]W-NH2) as the molecule, how does the “Specific Activity: intracellular Ca ion level-increasing activity [specific activity to Metastin (1-54)]” value read?
The value was 7.2.

How did the “Specific Activity: intracellular Ca ion level-increasing activity [specific activity to Metastin (1-54)]” value turn out when `CNC(=N)NCCC[C@H](NC(=O)[C@H](CC(C)C)NC(=O)NNC(=O)[C@H](Cc1ccccc1)NC(=O)[C@@H](NC(=O)[C@H](CC(N)=O)NC(=O)CCCCCN)[C@@H](C)O)C(=O)N[C@@H](Cc1c[nH]c2ccccc12)C(N)=O` [Compound No. 712, Acp-Asn-Thr-Phe-AzaGly-Leu-Arg(Me)-Trp-NH2] (H-[Ahx]NTF[azaGly]L[Arg(Me)]W-NH2) was run?
The value was 8.9.

`CNC(=N)NCCC[C@H](NC(=O)[C@H](CC(C)C)NC(=O)NNC(=O)[C@H](Cc1ccccc1)NC(=O)[C@@H](NC(=O)[C@H](CC(N)=O)NC(=O)CCCCCNC(C)=O)[C@@H](C)O)C(=O)N[C@@H](Cc1c[nH]c2ccccc12)C(N)=O` [Compound No. 713, Ac-Acp-Asn-Thr-Phe-AzaGly-Leu-Arg(Me)-Trp-NH2] (Ac-[Ahx]NTF[azaGly]L[Arg(Me)]W-NH2) was tested. Which “Specific Activity: intracellular Ca ion level-increasing activity [specific activity to Metastin (1-54)]” value did it give?
The value was 3.7.

How did the “Specific Activity: intracellular Ca ion level-increasing activity [specific activity to Metastin (1-54)]” value turn out when `CCCCCNC(=O)C[C@H](NC(=O)[C@@H](Cc1c[nH]c2ccccc12)NC(=O)[C@@H](Cc1ccc(O)cc1)NC(C)=O)C(=O)N[C@H](C(=O)N[C@@H](Cc1ccccc1)C(=O)NNC(=O)N[C@@H](CC(C)C)C(=O)N[C@@H](CCCNC(=N)NC)C(=O)N[C@@H](Cc1c[nH]c2ccccc12)C(N)=O)[C@@H](C)O` [Compound No. 714, Ac-D-Tyr-D-Trp-Asp(NHPen)-Thr-Phe-AzaGly-Leu-Arg(Me)-Trp-NH2] (Ac-[dY][dW]D(NHPentyl)TF[azaGly]L[Arg(Me)]W-NH2) was run?
The value was 0.7.

For `CNC(=N)NCCC[C@H](NC(=O)[C@H](CC(C)C)NC(=O)NNC(=O)[C@H](Cc1ccccc1)NC(=O)[C@@H](NC(=O)[C@H](CC(=O)NC1CC1)NC(=O)[C@@H](Cc1c[nH]c2ccccc12)NC(=O)[C@@H](Cc1ccc(O)cc1)NC(C)=O)[C@@H](C)O)C(=O)N[C@@H](Cc1c[nH]c2ccccc12)C(N)=O` [Compound No. 715, Ac-D-Tyr-D-Trp-Asp(NHcPr)-Thr-Phe-AzaGly-Leu-Arg(Me)-Trp-NH2] (Ac-[dY][dW]D(NHcPr)TF[azaGly]L[Arg(Me)]W-NH2), which “Specific Activity: intracellular Ca ion level-increasing activity [specific activity to Metastin (1-54)]” value is on record?
The value was 1.6.

Which “Specific Activity: intracellular Ca ion level-increasing activity [specific activity to Metastin (1-54)]” value does the source give for `CNC(=N)NCCC[C@H](NC(=O)[C@H](CC(C)C)NC(=O)NNC(=O)[C@H](Cc1ccccc1)NC(=O)[C@@H](NC(=O)[C@H](CC(=O)NCc1ccccc1)NC(=O)[C@@H](Cc1c[nH]c2ccccc12)NC(=O)[C@@H](Cc1ccc(O)cc1)NC(C)=O)[C@@H](C)O)C(=O)N[C@@H](Cc1c[nH]c2ccccc12)C(N)=O` [Compound No. 716, Ac-D-Tyr-D-Trp-Asp(NHBzl)-Thr-Phe-AzaGly-Leu-Arg(Me)-Trp-NH2] (Ac-[dY][dW]D(NHBn)TF[azaGly]L[Arg(Me)]W-NH2) here?
The value was 3.6.

Which “Specific Activity: intracellular Ca ion level-increasing activity [specific activity to Metastin (1-54)]” value does the source give for `CNC(=N)NCCC[C@H](NC(=O)[C@H](CC(C)C)NC(=O)NNC(=O)[C@H](Cc1ccccc1)NC(=O)[C@@H](NC(=O)[C@H](CNC(N)=O)NC(=O)[C@@H](Cc1c[nH]c2ccccc12)NC(=O)[C@@H](Cc1ccc(O)cc1)NC(C)=O)[C@@H](C)O)C(=O)N[C@@H](Cc1c[nH]c2ccccc12)C(N)=O` [Compound No. 717, Ac-D-Tyr-D-Trp-Alb-Thr-Phe-AzaGly-Leu-Arg(Me)-Trp-NH2] (Ac-[dY][dW][Dap(CONH2)]TF[azaGly]L[Arg(Me)]W-NH2) here?
Its value is 1.0.

How did the “Specific Activity: intracellular Ca ion level-increasing activity [specific activity to Metastin (1-54)]” value turn out when `CNC(=N)NCCC[C@H](NC(=O)[C@H](CC(C)C)NC(=O)NNC(=O)[C@H](Cc1ccccc1)NC(=O)[C@@H](NC(=O)[C@H](CNC(N)=O)NC(=O)[C@@H](Cc1ccncc1)NC(=O)[C@@H](Cc1ccc(O)cc1)NC(C)=O)[C@@H](C)O)C(=O)N[C@@H](Cc1c[nH]c2ccccc12)C(N)=O` [Compound No. 718, Ac-D-Tyr-D-Pya(4)-Alb-Thr-Phe-AzaGly-Leu-Arg(Me)-Trp-NH2] (Ac-[dY][d4Pal][Dap(CONH2)]TF[azaGly]L[Arg(Me)]W-NH2) was run?
The value was 2.6.

How did the “Specific Activity: intracellular Ca ion level-increasing activity [specific activity to Metastin (1-54)]” value turn out when `CNC(=N)NCCC[C@H](NC(=O)[C@H](CC(C)C)NC(=O)NNC(=O)[C@H](Cc1ccccc1)NC(=O)[C@@H](NC(=O)[C@H](CC(N)=O)NC(=O)[C@@H]1CCN1C(=O)[C@@H](Cc1ccc(O)cc1)NC(C)=O)[C@@H](C)O)C(=O)N[C@@H](Cc1c[nH]c2ccccc12)C(N)=O` [Compound No. 720, Ac-D-Tyr-Aze(2)-Asn-Thr-Phe-AzaGly-Leu-Arg(Me)-Trp-NH2] (Ac-[dY][Aze]NTF[azaGly]L[Arg(Me)]W-NH2) was run?
Its value is 0.8.

`CNC(=N)NCCC[C@H](NC(=O)[C@H](CC(C)C)NC(=O)NNC(=O)[C@H](Cc1ccccc1)NC(=O)[C@@H](NC(=O)[C@H](CC(N)=O)NC(=O)[C@@H]1CCCCN1C(=O)[C@@H](Cc1ccc(O)cc1)NC(C)=O)[C@@H](C)O)C(=O)N[C@@H](Cc1c[nH]c2ccccc12)C(N)=O` [Compound No. 721, Ac-D-Tyr-Pic(2)-Asn-Thr-Phe-AzaGly-Leu-Arg(Me)-Trp-NH2] (Ac-[dY][Pip]NTF[azaGly]L[Arg(Me)]W-NH2) was tested. Which “Specific Activity: intracellular Ca ion level-increasing activity [specific activity to Metastin (1-54)]” value did it give?
The value was 1.1.
